Results as given in patent US9828352B2, “Phenyl carbamates and their use as inhibitors of the fatty acid amide hydrolase (FAAH) enzyme and modulators of the D3 dopamine receptor (D3DR)” (FONDAZIONE ISTITUTO ITALIANO DI TECNOLOGIA, priority 2013, dated 2017).
Where a name gives a salt, the structure may show the parent alone.

Key:
human FAAH-1 = target: T1, human FAAH-1 (Homo sapiens, UniProt O00519); experiment: Human recombinant Fatty Acid Amide Hydrolase-1 (FAAH-1) fluorescent assay, Hek293-hFAAH-1 membranes; format: biochemical; conditions: 3 separate experiments, each in triplicate
T1 construct: expressed in transfected cells; host or cells: Hek293 cells stably transfected with human FAAH-1; membrane preparation
T1 sequence (O00519 1-579): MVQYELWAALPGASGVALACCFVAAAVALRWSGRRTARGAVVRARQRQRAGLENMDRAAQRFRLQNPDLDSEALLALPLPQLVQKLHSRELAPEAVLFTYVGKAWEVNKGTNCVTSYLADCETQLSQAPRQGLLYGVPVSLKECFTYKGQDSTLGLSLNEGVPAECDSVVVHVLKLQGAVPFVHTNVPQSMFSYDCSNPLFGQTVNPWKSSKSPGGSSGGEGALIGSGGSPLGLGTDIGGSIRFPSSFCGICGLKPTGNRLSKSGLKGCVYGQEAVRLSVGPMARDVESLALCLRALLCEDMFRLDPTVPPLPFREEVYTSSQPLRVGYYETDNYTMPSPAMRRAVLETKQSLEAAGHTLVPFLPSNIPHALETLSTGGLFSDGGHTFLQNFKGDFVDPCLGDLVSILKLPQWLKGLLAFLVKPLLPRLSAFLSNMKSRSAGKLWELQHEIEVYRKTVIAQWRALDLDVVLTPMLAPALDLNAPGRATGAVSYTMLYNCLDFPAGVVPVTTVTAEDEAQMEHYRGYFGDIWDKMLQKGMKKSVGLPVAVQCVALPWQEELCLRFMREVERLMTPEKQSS
Protocol: Human Recombinant Fatty Acid Amide Hydrolase-1 (FAAH-1) Fluorescent Assay
Hek293 cells stably transfected with human FAAH-1 were maintained in DMEM containing 10% FBS, 1% pen/strep and 500 μg/mL G418 to maintain selective pressure. Cells were scraped off with cold PBS1× pH7.4 from plates and collected by centrifugation (500 g, 10 minutes, 4° C.); cells pellets were re-suspended in homogenizing buffer (20 mM Tris-HCl pH7.4, 0.32M sucrose), disrupted by sonication (10 pulses, 5 times) and centrifuged at 800×g for 15 minutes at 4° C.; the resultant supernatants collected were then centrifuged at 105,000×g for 1 hr at 4° C. and membranes pellets were re-suspended in PBS1× pH7.4.
Protein concentration was measured and samples aliquot stored at −80° C. until use.
The blank (no activity) was prepared using 180 μL of assay buffer without Hek293-hFAAH-1 membrane preparation and 10 μL of DMSO.
After 50 minutes of pre-incubation of compounds with the enzyme at 37° C., the reaction was started by the addition of 10 μL of substrate (AMC Arachidonyl Amide, N.10005098, Cayman Chemical) for 30 min at 37° C. The substrate is prepared in Ethanol in order to achieve the final concentration of 2 μM.
Fluorescence was detected with Tecan Infinite M200 nanoquant (Tecan Group Ltd.) at an excitation wavelength 350 nm and an emission wavelength 460 nm.
(§1) EC50 or IC50 values (concentrations causing half-maximal response or inhibition of control agonist response) were determined by non-linear regression analysis of the Log [concentration]/response curves generated with mean replicate values using a four parameter Hill equation curve fitting with GraphPad Prism 5 (GraphPad Software Inc., CA—USA).

human-D3R = target: T2, human-D3R (Homo sapiens, UniProt P35462); experiment: D3 Dopamine Receptor (D3dR) cellular assay, cAMP HTRF functional assay in human-D3R expressing CHO cells; format: cell-based; conditions: for Emax: CHO, 0.5 h, % of 300 nM Dopamine response, read-out: Dopamine D3 % of Agonist Activity; for EC50: cAMP assay, CHO human-D3R, one experiment in duplicate
T2 construct: expressed in transfected cells; host or cells: CHO cell line stably transfected with human D3R
T2 sequence (P35462 whole entry): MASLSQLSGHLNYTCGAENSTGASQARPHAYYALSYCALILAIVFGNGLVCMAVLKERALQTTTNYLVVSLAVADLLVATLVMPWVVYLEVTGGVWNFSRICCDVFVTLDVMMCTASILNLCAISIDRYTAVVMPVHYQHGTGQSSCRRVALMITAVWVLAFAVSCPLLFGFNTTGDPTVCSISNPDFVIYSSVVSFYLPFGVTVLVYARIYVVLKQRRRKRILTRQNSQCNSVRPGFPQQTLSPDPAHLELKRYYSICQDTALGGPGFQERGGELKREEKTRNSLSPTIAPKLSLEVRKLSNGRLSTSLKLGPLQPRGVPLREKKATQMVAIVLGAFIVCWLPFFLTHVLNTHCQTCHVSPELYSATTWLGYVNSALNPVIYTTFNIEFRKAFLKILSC
Protocol: D3 Dopamine Receptor (D3dR) Cellular Assay
Activity on D3R was tested with a cAMP functional assay on a stably transfected human-D3R expressing CHO cell line. On the day of the assay performance the cells were washed twice with PBS (w/o calcium and magnesium) and dislodged with a cell scraper, transferred to PBS, centrifuged and re-suspended in HBSS (w/o calcium and magnesium), supplemented with 1 g/L glucose and […] IBMX. The cell suspension was seeded on a 384 well plate (Greiner) and the assay was performed by adding compounds either test compounds alone (for agonist activity), or with test compound after a pre-incubation with 10 nM Dopamine as a stimulant (for antagonistic activity). After incubation (30 min at RT) the cell stimulation was stopped by adding the detecting reagents (cAMP-XL665 and anti-cAMP cryptate) diluted in lysis buffer. The signal was quantified by Homogenous Time-Resolved Fluorescence (HTRF) on a Perkin Elmer Envision plate reader after one hour of incubation at RT.
as §1

| SMILES | IC50 (human FAAH-1) | Emax (human-D3R) | EC50 (human-D3R) |
| --- | --- | --- | --- |
| COc1ccccc1N1CCN(CCCCNC(=O)Oc2ccc3c(c2)[nH]c2ccccc23)CC1 [Example 33, 9H-carbazol-2-yl N-[4-[4-(2-methoxyphenyl)piperazin-1-yl]butyl]carbamate] | 37 nM | 65.9% | 12 nM |
| O=C(NCCCCN1CCN(c2cccc(Cl)c2Cl)CC1)Oc1ccc(-c2ccccn2)cc1 [Example 24, [4-(2-pyridyl)phenyl] N-[4-[4-(2,3-dichlorophenyl)piperazin-1-yl]butyl]carbamate] | 0.21 nM | 70.4% | 5.92 nM |
| COc1ccccc1N1CCN(CCCNC(=O)Oc2ccc(C(=O)c3ccccc3)cc2)CC1 [Example 44, (4-benzoylphenyl) N-[3-[4-(2-methoxyphenyl)piperazin-1-yl]propyl]carbamate hydrochloride] | 11 nM | – | – |
| NC(=O)c1cccc(-c2cccc(OC(=O)NCCCCN3CCC(c4ccccc4)CC3)c2)c1 [Example 14, [3-(3-carbamoylphenyl)phenyl] N-[4-(4-phenyl-1-piperidinyl)butyl]carbamate hydrochloride] | 9.6 nM | 74.3% | 36 nM |
| COc1ccccc1N1CCN(CCCNC(=O)Oc2ccc(Cc3ccccc3)cc2)CC1 [Example 43, (4-benzylphenyl) N-[3-[4-(2-methoxyphenyl)piperazin-1-yl]propyl]carbamate hydrochloride] | 18 nM | – | – |
| NC(=O)c1cccc(-c2ccc(OC(=O)NCCCCN3CCN(c4ccccc4)CC3)cc2)c1 [Example 25, [4-(3-carbamoylphenyl)phenyl] N-[4-(4-phenylpiperazin-1-yl)butyl]carbamate] | 3.5 nM | 87.5% | 3.6 nM |
| O=C(NCC(CF)N1CCN(c2cccc(Cl)c2Cl)CC1)Oc1ccc(-c2ccccc2)cc1 (centres unmarked) [Example 41, (4-phenylphenyl) N-[2-[4-(2,3-dichlorophenyl)piperazin-1-yl]-3-fluoro-propyl] carbamate hydrochloride] | 9.9 nM | – | – |
| Cc1ccccc1N1CCN(CCCNC(=O)Oc2ccc(-c3ccccc3)cc2)CC1 [Example 15, (4-phenylphenyl) N-[3-[4-(o-tolyl)piperazin-1-yl]propyl]carbamate] | 4.1 nM | 82% | 290 nM |
| NC(=O)c1cccc(-c2ccc(OC(=O)NCCCCN3CCN(c4cccc(Cl)c4Cl)CC3)cc2F)c1 [Example 21, [4-(3-carbamoylphenyl)-3-fluoro-phenyl] N-[4-[4-(2,3-dichlorophenyl)piperazin-1-yl]butyl]carbamate] | 0.96 nM | 69.4% | – |
| O=C(NCCCCN1CCN(c2cccc(Cl)c2Cl)CC1)Oc1ccc2c(c1)[nH]c1ccccc12 [Example 28, 9H-carbazol-2-yl N-[4-[4-(2,3-dichlorophenyl)piperazin-1-yl]butyl]carbamate] | 8 nM | 89.7% | 120 nM |
| O=C(NCCCCN1CCN(c2cccc(Cl)c2Cl)CC1)Oc1cccc(N2CCOCC2)c1 [Example 8, (3-morpholinophenyl) N-[4-[4-(2,3-dichlorophenyl)piperazin-1-yl]butyl] carbamate hydrochloride] | 3.4 nM | 83% | 35 nM |
| O=C(NCCCCN1CCN(c2cccc(Cl)c2Cl)CC1)Oc1ccc(N2CCC(F)(F)CC2)cc1 [Example 12, [4-(4,4-difluoro-1-piperidinyl)phenyl] N-[4-[4-(2,3-dichlorophenyl)piperazin-1-yl]butyl]carbamate hydrochloride] | 9.9 nM | 90.7% | 49 nM |
| COc1cc(OC(=O)NCCCN2CCN(c3ccccc3OC)CC2)ccc1-c1ccccc1 [Example 37, (3-methoxy-4-phenyl-phenyl) N-[3-[4-(2-methoxyphenyl)piperazin-1-yl]propyl] carbamate hydrochloride] | 7.8 nM | 73.5% | 38 nM |
| O=C(NCCCN1CCN(c2ccccc2C(F)(F)F)CC1)Oc1ccc(-c2ccccc2)cc1 [Example 16, (4-phenylphenyl) N-[3-[4-[2-(trifluoromethyl)phenyl]piperazin-1-yl]propyl] carbamate] | 12 nM | 95.4% | 300 nM |
| Cc1ccccc1N1CCN(CCCNC(=O)Oc2cccc(N3CCOCC3)c2)CC1 [Example 13, (3-morpholino phenyl) N-[3-[4-(o-tolyl)piperazin-1-yl]propyl]carbamate hydrochloride] | 4.4 nM | 59.4% | 150 nM |
| COc1ccccc1N1CCN(CCCCNC(=O)Oc2ccc(C(=O)c3ccccc3)cc2)CC1 [Example 45, (4-benzoylphenyl) N-[4-[4-(2-methoxyphenyl)piperazin-1-yl]butyl]carbamate hydrochloride] | 5.3 nM | 51.4% | 29 nM |
| O=C(NCCCN1CCN(c2cccc(Cl)c2Cl)CC1)Oc1ccc2c(c1)[nH]c1ccccc12 [Example 17, 9H-carbazol-2-yl N-[3-[4-(2,3-dichlorophenyl)piperazin-1-yl]propyl]carbamate] | 4.8 nM | 91% | 150 nM |
| O=C(NCCC(F)CN1CCN(c2cccc(Cl)c2Cl)CC1)Oc1ccc(-c2ccccc2)cc1 (centres unmarked) [Example 36, (4-phenylphenyl) N-[4-[4-(2,3-dichlorophenyl)piperazin-1-yl]-3-fluoro-butyl] carbamate] | 1.3 nM | 87.6% | 150 nM |
| O=C(NCCCN1CCN(c2ccccc2C(F)(F)F)CC1)Oc1ccc(N2CCC(F)(F)CC2)cc1 [Example 18, [4-(4,4-difluoro-1-piperidinyl)phenyl] N-[3-[4-[2-(trifluoromethyl)phenyl]piperazin-1-yl]propyl]carbamate hydrochloride] | 28 nM | 86% | 190 nM |
| O=C(NCCCCN1CCN(c2cccc(Cl)c2Cl)CC1)Oc1cccc(N2CCC(F)(F)CC2)c1 [Example 9, [3-(4,4-difluoro-1-piperidinyl)phenyl] N-[4-[4-(2,3-dichlorophenyl)piperazin-1-yl]butyl]carbamate hydrochloride] | 17 nM | 54.7% | 9.2 nM |
